Article PMC3986099, “Development of a Radioiodinated Triazolopyrimidine Probe for Nuclear Medical Imaging of Fatty Acid Binding Protein 4” (PLoS ONE, 2014)

Columns and labels:
[1] = Metabolite analysis in liver and kidneys; format: in vivo, ddY mice; conditions: 1 hr after i.v. administration, normal mice
Method: A saline solution (5% ethanol, v/v) of [^125I]TAP1 (1.20 MBq) was injected intravenously into the tail vein of ddY mice (males, 5 weeks old), and animals were sacrificed 1 hr post-injection. The liver and kidneys were removed and homogenized in 1 ml ice-cold 30 mM Tris-HCl buffer (pH = 8.5) containing 5 mM magnesium acetate at 4 °C. After addition of 3 ml cold methanol and vortexing, tissue samples were centrifuged (10,000×g, 5 min). The supernatants were filtered, and the filtrate was analyzed by RP-HPLC as described above.

[2] = Serum protein binding by rapid equilibrium dialysis; format: in vitro ADME; conditions: mouse plasma, 37 °C, 4 hr
Method: The serum protein binding ratio of [^125I]TAP1 was measured using rapid equilibrium dialysis (RED) devices (Thermo Fisher Scientific K.K.) following the manufacturer's procedures. Briefly, [^125I]TAP1 (0.02 MBq, 0.02 ml) and mouse plasma (0.3 ml) were mixed and placed to the sample chamber and 0.5 ml PBS (-) was placed in the RED device buffer chamber. After incubation at 37 °C for 4 hr, 0.05 ml of the samples were obtained from each chamber. The binding ratios were calculated as: (sample chamber radioactivity)-(buffer chamber radioactivity)/(sample chamber radioactivity) x 100 (%).

- intact form in kidneys [1]: more than 90%
- intact form in liver [1]: more than 90%
- percentage bound to serum proteins [2]: more than 99%
SMILES: O=c1cc(COc2cccc([125I])c2)[nH]c2nc(-c3ccccc3)nn12 [[^125I]TAP1]
